Earlier results, collected in patent US20020090642A1, “METHODS FOR DETERMINING THE PROGNOSIS OF BREAST CANCER USING ANTIBODIES SPECIFIC FOR THYMIDYLATE SYNTHASE” (priority 1995, published 2002).

Tested on: TS
Conditions: 24 hours post-fluorouracil therapy, tumor biopsy samples

O=c1[nH]cc(F)c(=O)[nH]1 [fluorouracil]
increase in TS: 2- to 6 fold
